Legend:
TK6 cells [1] = settings: induced by BMS (3 mM, 2 hours), 5 μg/ml 6-thioguanine
[2] = tested on: TK6 cells and trifluorothymidine-resistant mutants; assay: Reconstruction experiment: toxicity of BMS to TK6 and mutants (Example 7, FIG. 5); assay type: cell-based, human; settings: 24 hours exposure; relative surviving fraction
Method: TK6 cells were exposed to BMS for 24 hours. After treatment, the relative surviving fraction was determined by plating in micro wells.

TK6 cell line = assay: Mutation assay employing TK6 cell line: induction of TFTdR-resistant mutants (Example 2, Table 1); assay type: cell-based, human
Method: One cell line, TK6, isolated in Example 1, was maintained in spinner culture at 37° C. with a doubling time of approximately 18 hours. Approximately 10^7 cells (4×10^5 /ml) were treated with either BMS (1 mM) of ICR-191 (0.25 μg/ml and 0.50 μg/ml) for 24 hours. After treatment, the cells were centrifuged and resuspended in fresh medium at a concentration of 3×10^5 /ml. Dilutions to 3×10^5 /ml were made daily.
At various times after treatment, duplicate aliquots of 4×10^6 cells were centrifuged and resuspended in 10 ml of RPMI containing 20% FCS, 100 μ/ml penicillin, and 0.25% agarose (plating agar). To determine the plating efficiency of the culture, a […] sample of the suspension containing 4000 cells was added to 5 ml of plating agar and layered over 5 ml prejelled layer of the same medium in a 100 mm petri dish. […] The suspension was then plated in two 5 ml aliquots, each layered over a prejelled layer of plating agar in a 100 mm petri dish (final TFTdR concentration=1 μg/ml). The plates were fed the following day with 3 ml of medium.
The plates were counted after 7-10 days in a 37° C., 5% CO2, humidified incubator.

TK6 cells [3] = assay: Mutagenicity of polyaromatic hydrocarbons, trifluorothymidine resistance (Example 8, Table 4); settings: conclusion from plots and tables
Method: Three polyaromatic hydrocarbons derived from kerosine soot were examined for mutagenicity.
Error bars are the standard deviation of the mean.
For perylene, TK6 cells were treated in duplicate with perylene for 3 hours in the presence of 5% (v/v) aroclor-induced rat liver post-mitochondrial supernatant.

TK6 cells [4] = assay: Optimization of selective agent concentration (Example 6, FIG. 4); assay type: cell-based, human; settings: 0.33 μg/ml through 10 μg/ml; microtiter plates, two weeks
Source text: FIG. 4 is a plot of the data obtained wherein each point is the average of two independent platings.

[5] = tested on: trifluorothymidine-resistant TK6 mutant clones; assay: Plating efficiency of induced mutants in trifluorothymidine (Example 6, Table 3); assay type: cell-based, human
Source text: The effect of dead TK6 cells on the expression of mutants growing in microtiter plates was also studied.

[6] = tested on: trifluorothymidine-resistant TK6 mutant clones and TK6; assay: Growth of trifluorothymidine-resistant mutants in various media (Example 4, Table 2); assay type: cell-based, human; design: key to T2 - F3 TdR (doubling time): NG means no growth was observed in 3 days; settings: F3 TdR 1.0 μg/ml
Method: Growth experiments were performed approximately three weeks later, in 25 cm^2 […] total volume. […] RPMI is normal medium with 15% fetal calf serum. […] CHAT contained 1×10^-5 M cytidine, 2×10^-4 M hypoxanthine, 2×10^-7 M aminopterin, and 1.75×10^-5 M thymidine.

[7] = 1 mM × 24 Hrs, day 1 post-treatment
[8] = 1 mM × 24 Hrs, day 3 post-treatment
[9] = 1 mM × 24 Hrs, day 5 post-treatment
[10] = 0.25 μg/ml × 24 Hrs, day 0 post-treatment
[11] = 0.25 μg/ml × 24 Hrs, day 2 post-treatment
[12] = 0.25 μg/ml × 24 Hrs, day 4 post-treatment
[13] = 0.5 μg/ml × 24 Hrs, day 0 post-treatment
[14] = 0.5 μg/ml × 24 Hrs, day 2 post-treatment
[15] = 0.5 μg/ml × 24 Hrs, day 4 post-treatment

Nc1nc2nc[nH]c2c(=S)[nH]1 [6-thioguanine]
phenotypic expression time of 6-thioguanine resistance (TK6 cells [1]): 5 to 6 days

CCCCOS(C)(=O)=O [BMS, butylmethane sulfonate]
toxicity to TK6 and a mixture of mutants or a single mutant clone [2]: equally toxic
Observed Mutants per 4 × 10^6 Cells (TK6 cell line; [7]): 132
Plating Efficiency (TK6 cell line; [7]): 0.094
Observed Mutants per 4 × 10^6 Cells (TK6 cell line; [8]): 275
Plating Efficiency (TK6 cell line; [8]): 0.15
Observed Mutants per 4 × 10^6 Cells (TK6 cell line; [9]): 387
Plating Efficiency (TK6 cell line; [9]): 0.23

COc1ccc2nc3cc(Cl)ccc3c(NCCCNCCCl)c2c1 [ICR-191]
Observed Mutants per 4 × 10^6 Cells (TK6 cell line; [10]): 26
Plating Efficiency (TK6 cell line; [10]): 0.25
Observed Mutants per 4 × 10^6 Cells (TK6 cell line; [11]): 139
Plating Efficiency (TK6 cell line; [11]): 0.26
Observed Mutants per 4 × 10^6 Cells (TK6 cell line; [12]): 126
Plating Efficiency (TK6 cell line; [12]): 0.27
Observed Mutants per 4 × 10^6 Cells (TK6 cell line; [13]): 55
Plating Efficiency (TK6 cell line; [13]): 0.24
Observed Mutants per 4 × 10^6 Cells (TK6 cell line; [14]): 229
Plating Efficiency (TK6 cell line; [14]): 0.25
Observed Mutants per 4 × 10^6 Cells (TK6 cell line; [15]): 182
Plating Efficiency (TK6 cell line; [15]): 0.20

c1ccc2c(c1)-c1cccc3cccc-2c13 [fluoranthene]
mutagenic activity for these human cells (TK6 cells [3]): active as mutagens

c1cc2cccc3c4cccc5cccc(c(c1)c23)c54 [perylene]
mutagenic activity for these human cells (TK6 cells [3]): inactive

O=c1[nH]c(=O)n([C@H]2C[C@H](O)[C@@H](CO)O2)cc1C(F)(F)F [trifluorothymidine]
observed mutant fraction of an untreated culture versus trifluorothymidine concentration (TK6 cells [4]): no difference in the observed mutant fraction
PE in RPMI - F3 TdR ([5]; mutant BMS-2): 0.09
PE in RPMI-F3 TdR with 40,000 TK6/well ([5]; mutant BMS-2): 0.09
PE in RPMI - F3 TdR ([5]; mutant BMS-3): 0.21
PE in RPMI-F3 TdR with 40,000 TK6/well ([5]; mutant BMS-3): 0.17
PE in RPMI - F3 TdR ([5]; mutant BMS-4): 0.11
PE in RPMI-F3 TdR with 40,000 TK6/well ([5]; mutant BMS-4): 0.15
PE in RPMI - F3 TdR ([5]; mutant BMS-5): 0.29
PE in RPMI-F3 TdR with 40,000 TK6/well ([5]; mutant BMS-5): 0.31
PE in RPMI - F3 TdR ([5]; mutant ICR-1): 0.21
PE in RPMI-F3 TdR with 40,000 TK6/well ([5]; mutant ICR-1): 0.21
PE in RPMI - F3 TdR ([5]; mutant ICR-2): 0.09
PE in RPMI-F3 TdR with 40,000 TK6/well ([5]; mutant ICR-2): 0.10
T2 - F3 TdR (doubling time) ([6]; TK6): NG
growth of mutants in F3 TdR ([6]; all mutants): all mutants grew well
T2 - F3 TdR (doubling time) ([6]; mutant BMS-2): 18.4
T2 - F3 TdR (doubling time) ([6]; mutant BMS-3): 19.2
T2 - F3 TdR (doubling time) ([6]; mutant BMS-4): 17.7
T2 - F3 TdR (doubling time) ([6]; mutant BMS-5): 19.7
T2 - F3 TdR (doubling time) ([6]; mutant ICR-1): 18.6
T2 - F3 TdR (doubling time) ([6]; mutant ICR-2): 21.2

Reference: patent publication US4302535A, “Assay for mutagenesis in heterozygous diploid human lymphoblasts” (Massachusetts Institute of Technology, priority 1979, dated 1981)
